From publication PMC3783636 (ACS chemical biology, 2013)

B1: HD5ox: oxidized form of HD5 with three disulfide bonds (peptide, UniProt Q01523 20-94, looked up)
Defensin alpha 5: ESLQERADEATTQKQSGEDNQDLAISFAGNGLSALRTSGSQARATCYCRTGRCATRESLSGVCEISGRLYRLCCR
modifications: Defensin-5 oxidized, three disulfides
B2: HD5: 32-residue cysteine-rich host-defense peptide; the redox couple HD5ox/HD5red (peptide, UniProt Q01523 20-94, looked up)
Defensin alpha 5: B1 Defensin alpha 5
modifications: Defensin-5

Tests used:
[1] = known Zn(II) affinity; ref Supporting Information; cited from earlier work
[2] = tested on: trypsin; conditions: oxidized, triple-stranded β-sheet fold; cited from earlier work
[3] = Midpoint potential determination in DTT redox buffers; conditions: pH 7.0, 75 mM HEPES, DTTred/DTTox redox buffers −230 to −290 mV, 25 µM HD5red or HD5ox, anaerobic, 20 h, rt (ca. 22 °C), HPLC peak areas, global fit

Row | Molecule | Kd for Zn(II) of the sensor (range in words) [1] | further results
1 | FluoZin-1 [FZ1] | micromolar | –
2 | O=C(O)c1ccccc1NN=C(N=Nc1cc(S(=O)(=O)O)ccc1O)c1ccccc1 [Zincon] | micromolar | –
3 | Zinpyr-4 [ZP4] | mid-picomolar | –
4 | B1 | – | stability to trypsin [2]: resistant to degradation
5 | B2 | – | midpoint potential [3]: −257 mV
